These are literature values, as cited in patent publication US9974743B2, “Device and method for delivery of a medicament” (Philip Morris Products S.A., priority 2009, dated 2018).

The conditions of the series: 25° C.

SMILES strings stand for the structures.

Turning to `CN1CCCC1c1cccnc1` (stereo not shown) [Nicotine Control, Nicotine], the vapor pressure is recorded as 0.04 mm Hg.
